Molecular target: T1, Glutathione S-transferase E2 (Anopheles gambiae, UniProt Q9GPL8)
T1 sequence (Q9GPL8 whole entry): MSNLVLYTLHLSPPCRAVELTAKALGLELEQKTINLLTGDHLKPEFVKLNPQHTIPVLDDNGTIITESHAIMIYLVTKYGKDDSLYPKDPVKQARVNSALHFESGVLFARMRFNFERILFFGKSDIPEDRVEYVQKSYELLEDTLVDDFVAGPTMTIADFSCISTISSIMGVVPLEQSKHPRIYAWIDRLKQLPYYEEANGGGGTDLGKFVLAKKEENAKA
Test: GST Inhibition Assay
Conditions: pH 6.5; 30 °C
Excerpt: A range of natural product were screened for inhibition of AgGSTE2. GST activity was monitored by measuring absorbance at 340 nm with time, using a SpectraMax 340 microplate spectrophotometer equipped with a kinetics mode from Molecular Devices, Sunnyvale, California, USA.

Row | Compound | IC50
1 | CC(C)=CCCC1(C)C(CC=C(C)C)CC2(CC=C(C)C)C(=O)C(C(=O)c3ccc(O)c(O)c3)C(=O)C1(CC=C(C)C)C2=O (stereo not given) [GGI] | 4.8 µM
2 | O=Cc1occ2c(O)c3c(O)ccc(O)c3c(O)c12 [MR-13/4] | 4.3 µM
3 | COc1cc(O)c(-c2c(C)cc(O)c3c2Cc2cccc(O)c2C3=O)c(O)c1C(C)=O [Name not given] | 3.5 µM
4 | C=Cc1c(OC=O)cc(O)c2c1OC(c1ccc(O)c(O)c1)C(O)C2 (stereo not given) [TRAL-1] | 1.5 µM
5 | C=C(CC)C(=O)c1ccc(OCC(=O)O)c(Cl)c1Cl [[2,3-dichloro-4-(2-methylidenebutanoyl)phenoxy]acetic acid] | 1.4 µM

From BindingDB's records for doi:10.1080/14756360701546595 (University of Zimbabwe, 2008)
